Calls of active or inactive are those of the source. No cut-off for these calls is given here.
Tests used:
[1] = test system: Bel-7402; assay: Antiproliferative activity against human Bel7402 cells after 72 hrs by CCK-8 assay; format: functional, cell-based; details: Bel-7402, 72 h
[2] = test system: Bel7402/5-FU; assay: Antiproliferative activity against human Bel7402/5-FU cells after 72 hrs by CCK-8 assay; format: functional, cell-based
[3] = test system: L02; assay: Antiproliferative activity against human LO2 cells after 72 hrs by CCK-8 assay; format: cell-based; details: L02, 72 h
[4] = Resistant factor, ratio of IC50 for human Bel7402/5-FU cells to IC50 for human Bel7402 cells; format: functional
[5] = test system: Bel7402/5-FU; assay: Cell cycle arrest in human Bel7402/5-FU cells assessed as accumulation at G1 phase at 10 uM after 48 hrs by propidium iodide staining based flow cytometry (reference value: 52.21%); format: functional
[6] = test system: Bel7402/5-FU; assay: Cell cycle arrest in human Bel7402/5-FU cells assessed as accumulation at S phase at 10 uM after 48 hrs by propidium iodide staining based flow cytometry (reference value: 12.62%); format: functional
[7] = test system: Bel7402/5-FU; assay: Cell cycle arrest in human Bel7402/5-FU cells assessed as accumulation at G2 phase at 10 uM after 48 hrs by propidium iodide staining based flow cytometry (reference value: 35.16%); format: functional
[8] = test system: Bel7402/5-FU; assay: Induction of apoptosis in human Bel7402/5-FU cells assessed as reduction in cell number at 10 uM after 24 hrs by Hoechst 33342 staining based fluorescent microscopic method; format: functional
[9] = test system: Bel7402/5-FU; assay: Induction of apoptosis in human Bel7402/5-FU cells assessed as morphological changes at 10 uM after 24 hrs by Hoechst 33342 staining based fluorescent microscopic method; format: functional, cell-based
[10] = test system: Bel7402/5-FU; assay: Induction of apoptosis in human Bel7402/5-FU cells assessed as condensed nuclei at 10 uM after 24 hrs by Hoechst 33342 staining based fluorescent microscopic method; format: functional, cell-based
[11] = test system: Bel7402/5-FU; assay: Induction of apoptosis in human Bel7402/5-FU cells at 10 uM after 24 hrs by Hoechst 33342 staining based fluorescent microscopic method; format: functional, cell-based
[12] = test system: Bel7402/5-FU; assay: Induction of apoptosis in human Bel7402/5-FU cells assessed as live cells at 10 uM after 48 hrs by Annexin V-APC/7-AAD staining based flow cytometry (reference value: 91.08%); format: functional
[13] = test system: Bel7402/5-FU; assay: Induction of apoptosis in human Bel7402/5-FU cells assessed as early apoptotic cells at 10 uM after 48 hrs by Annexin V-APC/7-AAD staining based flow cytometry (reference value: 5.24%); format: functional
[14] = test system: Bel7402/5-FU; assay: Induction of apoptosis in human Bel7402/5-FU cells assessed as late apoptotic cells at 10 uM after 48 hrs by Annexin V-APC/7-AAD staining based flow cytometry (reference value: 3%); format: functional
[15] = test system: Bel7402/5-FU; assay: Induction of apoptosis in human Bel7402/5-FU cells assessed as necrotic cells at 10 uM after 48 hrs by Annexin V-APC/7-AAD staining based flow cytometry (reference value: 0.58%); format: functional
[16] = test system: Bel7402/5-FU; assay: Induction of microtubule disruption in human Bel7402/5-FU cells at 10 uM after 24 to 48 hrs by DAPI staining based immunofluorescence microscopic method; format: functional, cell-based
[17] = test system: Bel7402/5-FU; assay: Reduction in microtubule density in human Bel7402/5-FU cells at 10 uM after 24 to 48 hrs by DAPI staining based immunofluorescence microscopic method; format: functional, cell-based
[18] = test system: Bel7402/5-FU; assay: Antimigratory activity in human Bel7402/5-FU cells at 10 uM after 24 hrs by wound healing assay; format: functional, cell-based
[19] = test system: Bel7402/5-FU; assay: Effect on CDK1 expression in human Bel7402/5-FU cells assessed as ratio of CDK1 to beta-actin level at 10 uM after 48 hrs by Western blot analysis (reference value: 0.33); format: functional
[20] = test system: Bel7402/5-FU; assay: Effect on CDK2 expression in human Bel7402/5-FU cells assessed as ratio of CDK2 to beta-actin level at 10 uM after 48 hrs by Western blot analysis (reference value: 0.43); format: functional
[21] = test system: Bel7402/5-FU; assay: Effect on cyclinA expression in human Bel7402/5-FU cells assessed as ratio of cyclinA to beta-actin level at 10 uM after 48 hrs by Western blot analysis (reference value: 0.39); format: functional
[22] = test system: Bel7402/5-FU; assay: Effect on cyclinB1 expression in human Bel7402/5-FU cells assessed as ratio of cyclinB1 to beta-actin level at 10 uM after 48 hrs by Western blot analysis (reference value: 0.53); format: functional
[23] = test system: Bel7402/5-FU; assay: Induction of apoptosis in human Bel7402/5-FU cells assessed as ratio of cleaved caspase-3 to beta-actin level at 10 uM after 48 hrs by Western blot analysis (reference value: 0.19); format: functional
[24] = test system: Bel7402/5-FU; assay: Induction of apoptosis in human Bel7402/5-FU cells assessed as ratio of cleaved caspase-8 to beta-actin level at 10 uM after 48 hrs by Western blot analysis (reference value: 0.17); format: functional
[25] = test system: Bel7402/5-FU; assay: Induction of apoptosis in human Bel7402/5-FU cells assessed as ratio of cleaved caspase-9 to beta-actin level at 10 uM after 48 hrs by Western blot analysis (reference value: 0.17); format: functional
[26] = test system: Bel7402/5-FU; assay: Induction of apoptosis in human Bel7402/5-FU cells assessed as ratio of cleaved PARP to beta-actin level at 10 uM after 48 hrs by Western blot analysis (reference value: 0.2); format: functional
[27] = test system: Bel7402/5-FU; assay: Effect on VEGFR2 expression in human Bel7402/5-FU cells assessed as ratio of VEGFR2 to beta-actin level at 10 uM after 48 hrs by Western blot analysis (reference value: 0.25); format: functional
[28] = test system: Bel7402/5-FU; assay: Effect on MMP2 expression in human Bel7402/5-FU cells assessed as ratio of MMP2 to beta-actin level at 10 uM after 48 hrs by Western blot analysis (reference value: 0.3); format: functional
[29] = test system: Bel7402/5-FU; assay: Effect on E-cadherin expression in human Bel7402/5-FU cells assessed as ratio of E-cadherin to beta-actin level at 10 uM after 48 hrs by Western blot analysis (reference value: 0.2); format: functional
[30] = test system: Bel7402/5-FU; assay: Effect on COX1 expression in human Bel7402/5-FU cells assessed as ratio of COX1 to beta-actin level at 10 uM after 48 hrs by Western blot analysis (reference value: 0.48); format: functional
[31] = test system: Bel7402/5-FU; assay: Effect on COX2 expression in human Bel7402/5-FU cells assessed as ratio of COX2 to beta-actin level at 10 uM after 48 hrs by Western blot analysis (reference value: 0.36); format: functional
[32] = test system: Bel7402/5-FU; assay: Effect on iNOS expression in human Bel7402/5-FU cells assessed as ratio of iNOS to beta-actin level at 10 uM after 48 hrs by Western blot analysis (reference value: 0.13); format: functional
[33] = test system: Bel7402/5-FU; assay: Effect on P-gp expression in human Bel7402/5-FU cells assessed as ratio of P-gp to beta-actin level at 10 uM after 48 hrs by Western blot analysis (reference value: 0.59); format: functional
[34] = test system: Bel7402/5-FU; assay: Effect on MRP1 expression in human Bel7402/5-FU cells assessed as ratio of MRP1 to beta-actin level at 10 uM after 48 hrs by Western blot analysis (reference value: 0.58); format: functional
[35] = molecular target: Mitogen-activated protein kinase; ERK1/ERK2 (Homo sapiens) (UniProt P27361+P28482); assay: Effect on ERK1/2 phosphorylation in human Bel7402/5-FU cells assessed as ratio of phosphorylated ERK1/2 to beta-actin level at 10 uM after 48 hrs by Western blot analysis (reference value: 0.59); format: cell-based
Sequence of Mitogen-activated protein kinase; ERK1/ERK2 (Homo sapiens) (P27361 whole entry, looked up): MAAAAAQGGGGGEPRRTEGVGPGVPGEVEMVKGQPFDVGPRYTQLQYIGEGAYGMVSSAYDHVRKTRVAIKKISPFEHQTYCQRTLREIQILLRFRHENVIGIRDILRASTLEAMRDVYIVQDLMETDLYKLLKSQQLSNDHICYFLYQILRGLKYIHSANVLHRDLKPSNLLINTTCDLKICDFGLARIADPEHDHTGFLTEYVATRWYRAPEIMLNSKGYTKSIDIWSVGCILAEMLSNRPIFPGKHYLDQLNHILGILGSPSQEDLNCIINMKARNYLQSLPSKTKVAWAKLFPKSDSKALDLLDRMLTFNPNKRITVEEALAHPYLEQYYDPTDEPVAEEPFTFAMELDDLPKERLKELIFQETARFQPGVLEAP
Sequence of Mitogen-activated protein kinase; ERK1/ERK2 (Homo sapiens) (P28482 whole entry, looked up): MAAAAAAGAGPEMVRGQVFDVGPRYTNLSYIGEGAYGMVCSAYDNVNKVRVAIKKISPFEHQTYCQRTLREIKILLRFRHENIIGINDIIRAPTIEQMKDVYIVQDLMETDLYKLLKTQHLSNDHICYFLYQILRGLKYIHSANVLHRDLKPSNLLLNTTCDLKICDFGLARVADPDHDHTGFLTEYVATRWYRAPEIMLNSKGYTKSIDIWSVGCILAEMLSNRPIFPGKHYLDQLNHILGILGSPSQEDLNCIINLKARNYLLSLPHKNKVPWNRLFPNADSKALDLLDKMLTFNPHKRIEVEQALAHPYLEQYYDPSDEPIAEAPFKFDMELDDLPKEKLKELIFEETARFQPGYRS

[36] = molecular target: Signal transducer and activator of transcription 3 (Homo sapiens) (UniProt P40763); assay: Effect on STAT3 phosphorylation in human Bel7402/5-FU cells assessed as ratio of phosphorylated STAT3 to beta-actin level at 10 uM after 48 hrs by Western blot analysis (reference value: 0.3); format: cell-based
Sequence of Signal transducer and activator of transcription 3 (Homo sapiens) (P40763 whole entry): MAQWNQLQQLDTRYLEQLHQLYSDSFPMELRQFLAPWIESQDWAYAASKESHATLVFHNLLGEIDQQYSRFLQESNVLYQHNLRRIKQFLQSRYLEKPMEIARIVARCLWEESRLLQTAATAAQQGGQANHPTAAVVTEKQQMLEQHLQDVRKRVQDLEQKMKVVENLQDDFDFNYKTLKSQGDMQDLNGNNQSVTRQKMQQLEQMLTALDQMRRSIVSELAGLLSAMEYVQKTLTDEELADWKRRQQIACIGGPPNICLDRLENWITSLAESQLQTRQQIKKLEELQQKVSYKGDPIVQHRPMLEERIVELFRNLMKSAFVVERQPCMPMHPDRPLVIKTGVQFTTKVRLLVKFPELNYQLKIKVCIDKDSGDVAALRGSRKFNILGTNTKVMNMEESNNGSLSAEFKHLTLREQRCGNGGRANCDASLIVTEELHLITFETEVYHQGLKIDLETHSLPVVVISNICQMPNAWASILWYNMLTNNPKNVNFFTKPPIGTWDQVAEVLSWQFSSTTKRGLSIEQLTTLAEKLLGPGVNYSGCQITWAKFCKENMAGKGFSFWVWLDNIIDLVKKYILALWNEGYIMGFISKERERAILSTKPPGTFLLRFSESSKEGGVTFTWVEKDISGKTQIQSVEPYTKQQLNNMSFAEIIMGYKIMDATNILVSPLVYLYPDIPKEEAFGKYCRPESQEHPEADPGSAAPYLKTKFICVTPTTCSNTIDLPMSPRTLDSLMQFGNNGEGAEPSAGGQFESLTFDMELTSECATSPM

[37] = molecular target: RAC-alpha serine/threonine-protein kinase (Homo sapiens) (UniProt P31749); assay: Effect on AKT phosphorylation in human Bel7402/5-FU cells assessed as ratio of phosphorylated AKT to beta-actin level at 10 uM after 48 hrs by Western blot analysis (reference value: 0.39); format: cell-based
Sequence of RAC-alpha serine/threonine-protein kinase (Homo sapiens) (P31749 whole entry): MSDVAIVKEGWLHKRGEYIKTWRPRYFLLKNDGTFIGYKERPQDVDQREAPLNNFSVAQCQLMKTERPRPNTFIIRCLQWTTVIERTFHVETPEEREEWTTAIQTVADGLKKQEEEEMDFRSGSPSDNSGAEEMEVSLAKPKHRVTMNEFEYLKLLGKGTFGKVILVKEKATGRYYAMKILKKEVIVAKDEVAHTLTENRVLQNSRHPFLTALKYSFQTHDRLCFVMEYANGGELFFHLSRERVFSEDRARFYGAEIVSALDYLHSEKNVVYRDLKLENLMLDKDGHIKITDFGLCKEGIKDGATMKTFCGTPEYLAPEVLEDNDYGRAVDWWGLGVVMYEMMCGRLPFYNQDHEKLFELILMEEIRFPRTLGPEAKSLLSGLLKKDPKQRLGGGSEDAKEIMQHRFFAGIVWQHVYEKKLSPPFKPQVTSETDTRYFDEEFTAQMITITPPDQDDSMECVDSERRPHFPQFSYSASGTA

COc1cc([C@@H]2c3cc4c(cc3[C@H](OC(=O)C(C)c3ccc(CC(C)C)cc3)[C@H]3COC(=O)[C@H]23)OCO4)cc(OC)c1OC (some centres not stated)
IC50 [1]: 18.9 µM | IC50 [2]: 10.3 µM | IC50 [3]: 7.38 µM | Ratio IC50 [4]: 0.54 | Activity [5]: 8.88% | Activity [6]: 27.34% | Activity [7]: 63.78% | Activity [8]: Active | Activity [9]: Active | Activity [10]: Active | Activity [11]: Active | Activity [12]: 62.05% | Activity [13]: 7.12% | Activity [14]: 21.24% | Activity [15]: 9.59% | Activity [16]: Active | Activity [17]: Active | Activity [18]: Active | Ratio [19]: 0.29 | Ratio [20]: 0.38 | Ratio [21]: 0.36 | Ratio [22]: 0.52 | Ratio [23]: 0.33 | Ratio [24]: 0.25 | Ratio [25]: 0.25 | Ratio [26]: 0.35 | Ratio [27]: 0.18 | Ratio [28]: 0.21 | Ratio [29]: 0.29 | Ratio [30]: 0.46 | Ratio [31]: 0.43 | Ratio [32]: 0.23 | Ratio [33]: 0.61 | Ratio [34]: 0.7 | Ratio [35]: 0.55 | Ratio [36]: 0.4 | Ratio [37]: 0.42

Reference: ChEMBL document CHEMBL4038272, “Synthesis and biological evaluation of novel podophyllotoxin-NSAIDs conjugates as multifunctional anti-MDR agents against resistant human hepatocellular carcinoma Bel-7402/5-FU cells” (Eur J Med Chem, 2017)
